row,melting point [°C],SMILES
1,201 to 202,CC(C)n1nc(-c2nc(C#N)c(C#N)nc2-c2ccccc2)ccc1=O
2,241 to 243,COc1cc2cc(C#N)c(N)cc2cc1OCc1ccccc1
3,159 to 160,NC(=O)c1cccc(-c2cccc3oc(Cc4cccc(C(F)(F)F)c4)cc23)c1
4,110,"O=C(O)CNC(=O)NC(CS)Cc1ccccc1 (single isomer, unassigned; (+))"
5,254 to 255,Nc1ccc(-c2cc(=O)c3cccnc3o2)cc1
6,125 to 126,Fc1ccc2c(C3CCN(CC4=Cc5cc6c(cc54)OCO6)CC3)noc2c1
7,71 to 72,CCCN(CCC)c1c([N+](=O)[O-])cc(C(C)=O)cc1[N+](=O)[O-]
8,141 to 143,COc1nc(CCc2cc(Br)ccc2OCc2ccccc2)ccc1C(=O)O
9,110 to 112,Cc1ccc(-c2cc(-c3ccccc3)c(-c3ccccc3)s2)cc1
10,140 to 142,CCOC(=O)C1=C(C)N(C(C)=O)C(c2csc(C)n2)=NC1c1ccc(F)cc1 (stereo not drawn)
11,235 to 238,NS(=O)(=O)c1cc2c(cc1Cl)NC(c1ccccc1)NS2(=O)=O (stereo not drawn)
12,162,C=COC(=O)n1c(S(=O)Cc2ccc(C)cn2)nc2cscc21 (stereo not drawn)
13,204 to 207,Cc1cc2c(-c3ccccc3)c(CCO)n(C)c(=O)c2cc1C
14,117 to 122,CCc1c(C#N)oc(=O)n1S(=O)(=O)c1c(C)noc1C
15,154 to 155,COc1ccc(-c2nn(Cc3ccccc3)c(=O)cc2-c2ccncc2)cc1
16,202,CC12CCC(=O)C=C1CCC1C2CCC2(C)C1CCC2(OC=O)C(=O)CCl (stereo not drawn)
17,221 to 227,COC(=O)c1ccc2cc(-c3ccc(OC)c(C45CC6CC(CC(C6)C4)C5)c3)ccc2c1
18,169 to 171,COc1ccc(F)cc1Oc1c(Cl)ncnc1NS(=O)(=O)c1ccc(Cl)cc1
19,169 to 172,CCCCc1nc2c(N)nc3ccccc3c2n1CCCC1(C)OCCO1
20,68 to 76,COC(=O)Cc1ccc(OCCNC(=O)C2Cc3ccccc3N2S(=O)(=O)c2ccc(-c3ccc(F)cc3)cc2)c(Cl)c1 (stereo not drawn)
21,62 to 64,O=[N+]([O-])c1cc(CN(CCN=C=S)CCN=C=S)cc(CN(CCN=C=S)CCN=C=S)c1
22,98 to 99,Cc1ccc(O[C@@H]2CNCC[C@H]2O)cc1C (relative stereo)
23,132,c1cn(-c2ccc3nc(-c4ccc5c(c4)OCCO5)ncc3c2)cn1

row,melting point [°C],SMILES
1,128 to 131,Cc1c(C(=O)O)oc2ccc(OCCNC[C@@H](O)c3csc(C(F)(F)F)n3)cc12
2,163 to 165,CN(C)C(=O)CCNC(=O)c1ccc(-c2ccc3nnn(Cc4ccc5ncccc5c4)c3n2)cc1F
3,176 to 178,CCOCc1nc2c(N)nc3cc(Br)cnc3c2n1CC(C)(C)NC(=O)OC(C)(C)C
4,60 to 62,CNC(=O)[C@H](O)C(C)(C)C
5,72 to 75,CCCC(=O)c1ccc(N(CCO)CCO)cc1
6,115,COc1cc(C(=O)c2ccc(C(F)(F)F)cc2)cc([N+](=O)[O-])c1OC
7,218,Cc1ccc(NC(=O)c2ccc(C(=O)Nc3ccccc3NC(=O)OC(C)(C)C)s2)cc1Nc1nc(-c2cccnc2)cs1
8,300 to 303,Oc1ncnc2c(-c3ccc(Cc4ccccc4)cc3)cnn12
9,163 to 165,COC(=O)c1ccccc1S(=O)(=O)N1CCC[C@H]1C(=O)N[C@@H](Cc1ccccc1)C(=O)O
10,> 320,O=C(Nc1cccnc1)c1cc2ccnc(Cl)c2[nH]1
11,> 250,O=C(O)c1[nH]c2cc(Cl)cc(Cl)c2c1C=C1CC(=O)N(c2ccccc2)C1=O
12,309 to 310,Cc1nnc2c3[nH]cnc3n(Cc3ccccc3)c(=O)n12
13,227 to 231,O=C(O)c1cc2c(Cl)cccc2s1
14,48,COC(=O)C(CCSC)NC(=O)c1ccc(NCC2CC(O[Si](C)(C)C(C)(C)C)CN2C(=O)OC(C)(C)C)cc1-c1ccccc1 (stereo not drawn)
15,161 to 166,Cc1cccc2sc(NN)nc12
16,207,Cc1cc2cc(CN3CCCCCC3)cnc2cc1NC(=O)c1ccc(-c2cc3ccccc3o2)cc1
17,168 to 169,"CC(=O)NCC1CC(c2cc(F)c(-n3ccnc3)c(F)c2)=NO1 (single isomer, unassigned; (-))"
18,200 to 205,O=C(O)c1cn(CCc2cccc(C(F)(F)F)c2)c2cc(C3CC3)nn2c1=O
19,107 to 109,Clc1cccc(-c2nc3ccccc3n2-c2ccccc2)c1
20,287 to 302,O=C(O)c1c[nH]cc2c(=O)n(-c3ccccc3)nc1-2
21,162 to 165,CC(CN1CC(=O)N(CN2CCOCC2)C(=O)C1)N1CC(=O)NC(=O)C1 (stereo not drawn)
22,194,N#CSCCON=C(C(=O)O)c1csc(NC(c2ccccc2)(c2ccccc2)c2ccccc2)n1
23,182 to 184,COc1c(C2CCN(CCCCNC(=O)c3ccc(-c4ccc(NS(=O)(=O)CC(F)(F)F)cc4)cc3)CC2)ccc2c1CCCC2

row,melting point [°C],SMILES
1,60 to 62,c1cc(C2CCOCC2)ccn1
2,197 to 198,CC1CCC2(OC1)OC1CC3C4CCC5CC(O[Si](C)(C)C)CCC5(C)C4CCC3(C)C1C2C (stereo not drawn)
3,94 to 96,CCCNCCCC(c1ccccc1)c1ccccc1
4,99 to 101,C=CCN(NC(=O)c1ccc(Cl)c(S(N)(=O)=O)c1)c1ccccc1
5,236 to 238,COc1ccc(C2=C(OC(C)=O)C(=O)Nc3ccc(Cl)cc3S2)cc1
6,110 to 114,c1cncc(-c2noc(-c3ccco3)n2)c1
7,> 250,COC(=O)c1cc(C(=O)NN2CCOCC2)c2cc(Cc3ccc(F)cc3)cnc2c1O
8,208 to 210,FC(F)(F)c1ccc(C2=NN(C(=S)Nc3ccc(Cl)cc3)CC2c2ccccc2)cc1 (stereo not drawn)
9,132,COc1ccc(C(=O)N2CC3CC2C(=O)O3)cc1OC (stereo not drawn)
10,> 215,Cc1ccc(Cl)c(Nc2ccccc2-c2nnc(NC#N)o2)c1Cl
11,82 to 84,CNC(=O)[C@@H]1C[C@H](SCc2ccc(OC)cc2)CN1C
12,> 300,N=c1nc(Nc2ccccc2)nc2[nH]c3ccccc3n12
13,88,Cc1cccc(-c2cccc(CBr)n2)n1
14,221 to 223,CN1Cc2c(-c3noc(CCl)n3)ncn2-c2ccsc2C1=O
15,79 to 80,COc1ccccc1C1CC(=O)c2c(C)coc2C1 (stereo not drawn)
16,113 to 115,CCNC(=S)NNC(=O)c1ccc(N)cc1
17,188 to 189,CNC(=O)Nc1ccc(O)c(Cl)c1
18,108 to 110,O=[N+]([O-])C(CN(Cc1ccccc1)Cc1ccccc1)=C1NCCCS1
19,165 to 166,CC(C)(C)COc1cccc(C[C@@H](NC(=O)c2ccc(F)c3ccccc23)[C@@H](O)c2cccc(Cl)c2)c1 (racemic)
20,216,CC1(C2CCCC2)Cc2cc(OCC(=O)NC(=N)N)c(Cl)c(Cl)c2C1=O (stereo not drawn)
21,95 to 96,CC(=O)S[C@@H]1CCO[C@@H](c2ccccc2)O1 (relative stereo)
22,137 to 138,C=CCOc1ccc2c(c1)C(=O)NC(C)(C)O2
23,84 to 86,Cc1c(N)c(C)c(C(C)C)c2c1CC(C)(CI)O2 (stereo not drawn)

row,melting point [°C],SMILES
1,195 to 196,CCOC(=O)C(=O)Nc1c([N+](=O)[O-])sc2cc(OC)ccc12
2,105 to 107,CC1(C)CCC(C)(C)c2cc(-c3cc(-c4ccc(C(=O)O)cn4)ccc3-c3ccccc3)ccc21
3,156 to 157,CCC(CC)N(O)C(=O)Nc1ccc(C(=O)c2ccccc2)cc1
4,134,CCOC(=O)COc1c(OC)cc(Cl)c2c1CN1CCc3cc(OC)c(OCc4ccccc4)cc3C1C2 (stereo not drawn)
5,104 to 105,O=C(C(=O)c1cccc(F)c1)c1cccc(F)c1
6,72 to 76,Cc1cc([N+](=O)[O-])c(Cl)nc1C
7,58 to 71,CCN(CC)c1ccc(N(c2ccc(N(CC)CC)cc2)C2(c3ccc(N(CC)CC)cc3C)OC(=O)c3ccccc32)cc1 (stereo not drawn)
8,103 to 106,COc1ccc([C@@H]2Sc3cc(Cl)ccc3N(CCCCl)C(=O)[C@@H]2O)cc1 (relative stereo)
9,97 to 100,O=C(O)CCSC(CCCc1ccccc1)c1ccc(OCc2ccc3ccccc3n2)cc1 (stereo not drawn)
10,200 to 201,CC(=O)Nc1nc(CCc2ccc(N)cc2)c(C(=O)NCc2ccccc2)s1
11,242 to 250,CNc1cc2c(Nc3ccc(Sc4nccn4C)c(Cl)c3)c(C#N)cnc2cc1N1CCC(N2CCCC2)CC1
12,95 to 98,C=CCCCCCCOc1ccc(CCC(N)(CO)CO)cc1
13,168,CC(C)(C)C(=O)NCCC(=O)NC1CCCCC1Nc1cccc2c1C(=O)c1ccccc1C2=O (stereo not drawn)
14,185,O=C(O)c1cc(F)ccc1S
15,158 to 160,C=C(c1ccccc1N1CCCCC1)C(C(N)=O)c1ccc(C(=O)O)cc1 (stereo not drawn)
16,157 to 159,COc1cc(-c2ccccc2)nc(SCC(=O)O)n1
17,68 to 70,CC(N)=CC(=O)OCC(C)(C)CN(C)Cc1ccccc1
18,97 to 98,C#CCn1cc(CO)sc1=O
19,183 to 184,COc1ccc2c(c1)C(=O)CC1C2C(OC(=O)C(C)(C)C)CC2(C)C(OC(=O)C(C)(C)C)CCC12 (stereo not drawn)
20,149 to 152,CCc1nc2c(N)nc3cc(CCNS(C)(=O)=O)ccc3c2n1CC(C)(C)O
21,162 to 163,O=C(C=CCc1c[nH]c2ccccc12)NC(C(=O)OCc1ccccc1)C(=O)OCc1ccccc1
22,217 to 223,CC1CC2CC(Cc3ccc(O)cc3)CCC2NC1=O (stereo not drawn)
23,135 to 137,CCOC(=O)c1cc(OC(C)=O)c2cc(N3CCOCC3)ccc2c1

row,SMILES,melting point [°C]
1,COC(=O)c1ccc2nc(-c3ccc4c(c3)C(C)(C)CCC4(C)C)[nH]c2c1,223
2,CCOP(=S)(OCC)OC(=O)/C(=N\OC(C)=O)c1csc(N)n1,128 to 130
3,CN1Cc2c(I)ncn2-c2ccc(F)c(Cl)c2C1=O,218 to 219
4,CC(C)c1cccc(C(C)C)c1OCC(=O)O,84 to 87
5,CCCn1cc(C(=O)c2cccc3cc(OC)ccc23)c2ccccc21,139 to 140
6,COc1nc(OC)nc(N(C)C(=O)Oc2ccccc2)n1,90

# From a melting point compilation (Tetko et al.; mined from patent text by program, amines drawn as free bases though some values may be those of a salt)
